In the NIST ThermoML archive (doi:10.1021/je049609w):

Tests used:
[1] = xn = mol fraction of the nth substance listed; details: 101 kPa, Liquid
[2] = refractive index (Na D-line) (dimensionless); xn = mol fraction of the nth substance listed; details: 101 kPa, Liquid

C1COCCO1 [1,4-dioxane] + Clc1ccccc1Cl
x1 = 1
Details | mass density, 298.15 K [kg/m3] | mass density, 303.15 K [kg/m3] | mass density, 308.15 K [kg/m3] | refractive index, 298.15 K | refractive index, 303.15 K | refractive index, 308.15 K | speed of sound, 298.15 K [m/s] | viscosity, 298.15 K [mPa·s] | viscosity, 303.15 K [mPa·s] | viscosity, 308.15 K [mPa·s]
[1] | 1028.6 | 1022.9 | 1017.2 | – | – | – | 1345 | 1.196 | 1.102 | 1.008
[2] | – | – | – | 1.4203 | 1.4164 | 1.4145 | – | – | – | –

ClC=C(Cl)Cl [trichloroethene] + C1COCCO1
Details | mass density, 298.15 K [kg/m3] | mass density, 303.15 K [kg/m3] | mass density, 308.15 K [kg/m3] | refractive index, 298.15 K | refractive index, 303.15 K | refractive index, 308.15 K | speed of sound, 298.15 K [m/s] | viscosity, 298.15 K [mPa·s] | viscosity, 303.15 K [mPa·s] | viscosity, 308.15 K [mPa·s]
[1], x2 = 0 | 1455.4 | 1447 | 1438.5 | – | – | – | 1027 | 0.573 | 0.547 | 0.521
[1], x2 = 0.1006 | 1412.7 | 1404.6 | 1396.4 | – | – | – | 1059 | 0.635 | 0.602 | 0.569
[1], x2 = 0.201 | 1370.1 | 1362.2 | 1354.2 | – | – | – | 1091 | 0.697 | 0.658 | 0.618
[1], x2 = 0.2983 | 1327.9 | 1320.3 | 1312.8 | – | – | – | 1122 | 0.758 | 0.712 | 0.665
[1], x2 = 0.3995 | 1284.4 | 1277.2 | 1270 | – | – | – | 1152 | 0.821 | 0.768 | 0.714
[1], x2 = 0.507 | 1238.6 | 1231.5 | 1224.5 | – | – | – | 1187 | 0.888 | 0.827 | 0.767
[1], x2 = 0.5993 | 1199.3 | 1192.5 | 1185.7 | – | – | – | 1215 | 0.945 | 0.878 | 0.812
[1], x2 = 0.6969 | 1158.5 | 1152.1 | 1145.6 | – | – | – | 1246 | 1.006 | 0.933 | 0.859
[1], x2 = 0.802 | 1114 | 1107.7 | 1101.5 | – | – | – | 1276 | 1.072 | 0.991 | 0.911
[1], x2 = 0.9003 | 1072.1 | 1066.2 | 1060 | – | – | – | 1307 | 1.133 | 1.046 | 0.959
[2], x2 = 0 | – | – | – | 1.476 | 1.4729 | 1.4698 | – | – | – | –
[2], x2 = 0.1006 | – | – | – | 1.4704 | 1.4673 | 1.4643 | – | – | – | –
[2], x2 = 0.201 | – | – | – | 1.4648 | 1.4618 | 1.4587 | – | – | – | –
[2], x2 = 0.2983 | – | – | – | 1.4592 | 1.4562 | 1.4532 | – | – | – | –
[2], x2 = 0.3995 | – | – | – | 1.4536 | 1.4507 | 1.4477 | – | – | – | –
[2], x2 = 0.507 | – | – | – | 1.4476 | 1.4446 | 1.4417 | – | – | – | –
[2], x2 = 0.5993 | – | – | – | 1.4426 | 1.4396 | 1.4366 | – | – | – | –
[2], x2 = 0.6969 | – | – | – | 1.4373 | 1.4344 | 1.4315 | – | – | – | –
[2], x2 = 0.802 | – | – | – | 1.4314 | 1.4285 | 1.4256 | – | – | – | –
[2], x2 = 0.9003 | – | – | – | 1.426 | 1.4231 | 1.4202 | – | – | – | –
